Patent publication US20040121912A1, “Method for controlling root growth using paraquat” (priority 2002, published 2004)
Entries after “also recorded” stand apart in the source; their conditions may differ.

System: black willow (Salix nigra) roots
Experiment: Foam application to exposed roots of greenhouse-grown black willow cuttings; roots evaluated 25 days after treatment
Settings: for Dry Weight of Roots, Dead Roots / Dry Weight of Roots, Live Roots: 20 min contact, twenty-five days following treatment, average of 24 willow cuttings; for Effect on treated roots (visual inspection, living roots / root growth): foam application, twenty-five days following treatment (FIG. 3, FIG. 4)
Description: Individual branch cuttings of black willow (Salix nigra) were collected and grown in containers according to methods described in Groninger and Bohanek 2000, J. of Plant Growth Regulation 19:453-456. The cuttings were rooted in 262 ml tubes containing a 1:1 mixture of peat moss and white washed play sand. Tubes were perforated with a 2 cm^2 hole in the bottom and four 1.4 cm^2 holes on the side, 2 cm from the bottom of the tube. Cuttings were grown under greenhouse conditions in racks containing 12 tubes each with one cutting per tube. To facilitate root growth outside of the tube, the racks were placed in aluminum pans and positioned so that the base of each tube was suspended in dilute nutrient solution. Water was added as needed and a 20-20-20-NPK fertilizer was provided at a rate of 0.04 g/cutting per week into the pan. Root growth was further facilitated by maintaining the root zone in darkness by covering gaps between the edge of the rack and the pan with aluminum foil. When cuttings had been growing for approximately four months, intermingling exposed roots from adjacent cuttings were separated from one another and fine roots were allowed to regrow. Treatment were initiated when shoots averaged 0.8 meters in height with healthy foliage. At the time of treatment, each cutting produced profuse growth of roots 0.3 cm in diameter or less.
Roots of the cuttings were exposed to paraquat, diquat, Rootex, a rooting hormone, and a control. Paraquat (Gramoxone Max®, Syngenta, containing 43.8% paraquat) was applied to roots cuttings at two rates, 2.0 and 4.0 ml/L. Diquat (Reward®, Syngenta, containing 37.3% diquat) was applied at 4.0 ml/L. Each treatment of the four treatments were applied in 1.0 L water solution with a 2% alkyl polyglycoside-based foaming agent, AU-340 (Adjuvants Unlimited, Tulsa, Okla.) using a foam generator to simulate a standard application of chemicals in controlling tree roots in sewer lines. Roots were placed in contact with foam solution for 20 minutes. […] Upon removal of foam solution, cuttings and their exposed roots were returned to pretreatment nutrient conditions with residual foam permitted to maintain contact with exposed roots.
Evaluation of roots was conducted twenty-five days following treatment. Roots were visually inspected, harvested, separated into living and dead groups, dried and weighed for dry mass determination.

| SMILES | Dry Weight of Roots, Dead Roots (4.0 ml/L of stock in foam) [g/willow cutting] | Dry Weight of Roots, Live Roots (4.0 ml/L of stock in foam) [g/willow cutting] | Effect on treated roots (visual inspection, living roots / root growth) | Dry Weight of Roots, Dead Roots (2.0 ml/L of stock in foam) [g/willow cutting] | Dry Weight of Roots, Live Roots (2.0 ml/L of stock in foam) [g/willow cutting] | Damage to the upper portion of the trees (green house testing, applied as a dense foam to tree roots) |
| --- | --- | --- | --- | --- | --- | --- |
| c1cc[n+]2c(c1)-c1cccc[n+]1CC2 [Diquat] | 0.9 | 0 | No living roots |  |  |  |
| C[n+]1ccc(-c2cc[n+](C)cc2)cc1 [Paraquat, 1,1′-dimethyl-4,4′-bipyridium ion] | 2.2 | 0 | destruction of the test roots; also recorded: No living roots | 0.7 | 0 | without causing damage |
